Like-named read-outs stand apart in the source and are kept apart here.

Assay type in all cases: in vivo
The subject of series [1] is S. aureus Smith (ATCC 13709). As to the kind of experiment: Mouse systemic infection (septicemia) model, S. aureus Smith. Conditions: Staphylococcus aureus, CD-1 female mice; for responders at 3 mg/kg: ATCC13709, iv, IV 3 mg/kg one hour post infection, read-out: SA Smith septicemia survival IV (3 mg/kg); for responders at 3 mg/kg / responders at 30 mg/kg: 48 h, survival at 48 hours; for responders at 30 mg/kg: ATCC13709, po, PO 30 mg/kg one hour post infection, read-out: SA Smith septicemia survival PO (30 mg/kg); for ED50: ATCC13709, dose that prevents 50% of the mice from death, 48 hours. Put shortly:
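Female CD-1 mice (18-22 g) infected IP with an inoculum lethal to all within 24–48 h. Compound given 1 h post-infection IV ([…]) or PO ([…]), typically six mice per dose group; survival followed for 48 h and PD50 (mg/kg) derived from 48 h survival.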

The test system of a further series is S. aureus ATCC 13709. As to the kind of experiment: Neutropenic thigh model. Conditions: neutropenic female CD-1 mice, IV, doses ranging 0.3 to 30 or 0.3 to 20 mg/kg, 24 hours post treatment. On the procedure: Neutropenic Thigh Model Female CD-1 mice were pre-treated with cyclophosphamide to render the mice neutropenic. Mice were infected with S. aureus ATCC 13709 via injection of 0.1 ml into the right thigh muscle of each mouse. One and a half hours post infection mice were treated IV with test compounds in doses ranging from 0.3 to 30 mg/kg or 0.3 to 20 mg/kg. Four mice were treated with each drug concentration. Twenty-four hours post treatment, mice were euthanized by CO2 inhalation. The right thighs of the mice were aseptically removed, weighed, homogenized, serially diluted, and plated on TSA medium. The plates were incubated overnight at 37° C. in 5% CO2. Colony forming units per gram of thigh was calculated by enumerating the plated colonies then adjusting for serial dilutions and the weight of the thigh.

Series [2] is described as follows: Pharmacokinetic studies in rats. Conditions: male Sprague Dawley rats; for clearance / bioavailability / AUC / Cmax: rat, plasma, fasted; for clearance: read-out: Cl, IV Rat PK; for bioavailability: oral 10 mg/kg vs IV 1 mg/kg, read-out: % F (oral bioavailability), Oral Rat PK; for Cmax: read-out: Cmax, IV Rat PK. On the procedure:
Pharmacokinetic Studies in Rats Test compounds were evaluated in fasted (no food for 18 hours prior to dosing) male Sprague Dawley rats (3 animals per group) by administration of 1 mg/kg intravenously into the jugular vein and […] by oral gavage. Ten plasma samples were drawn for each dosing route up to 24 hours into heparin-coated vacutainer tubes. The plasma concentrations of the test compounds were quantified by LC/MS/MS using an internal standards. WinNONLIN was used to determine PK parameters ±standard deviation (AUC, Cmax, CL, Vss and % oral bioavailabilty (% F) and are set forth in Table F.

Series [3] deals with Uropathogenic E. coli EC200. The series can be described thus: Murine kidney infection model, uropathogenic E. coli EC200. Conditions: Escherichia coli, po, 36 h, BALB/c mice, read-out: EC200 UTI PO, log10 reduction in CFUs in the kidney versus untreated controls. As for the experimental part: Kidney Infection Models for Uropathogenic E. coli EC200 and K. pneumoniae ESBL Isolate KP453
Compounds were tested in a BALB/c murine kidney infection model challenged with tetracycline-resistant E. coli strain uropathogenic […] via intravenous injection. […] For IV administration test compound was dosed at 3 mg/kg. Thirty-six hours following initiation of treatment, mice were euthanized and bacterial reduction in the kidney was quantified by plating kidney homogenates. Results are reported in Table D as log10 reduction in colony forming units (CFUs) in the kidney versus untreated controls (receiving no test compound).

The mark [4] stands for this setting: IV, read-out: SA Smith septicemia PD50 IV.
Where [5] appears, read: PO, read-out: SA Smith septicemia PD50 PO.
[6] abbreviates: IV 1 mg/kg, read-out: AUC, IV Rat PK.
Where [7] appears, read: oral gavage 10 mg/kg, read-out: AUC, Oral Rat PK.

One may read the bioavailability as dose-corrected exposure relative to a reference, in per cent. For orientation: AUC means concentration integrated over time. By Cmax is commonly meant the maximum level reached in the sampled fluid or tissue. In the case of `CC(C)CNCc1cc(O)c2c(c1F)C[C@H]1C[C@H]3[C@H](N(C)C)C(O)=C(C(N)=O)C(=O)[C@@]3(O)C(O)=C1C2=O` [Compound S2-4-14], in series [1], the responders at 3 mg/kg was 100% and the responders at 30 mg/kg is 100%. In addition, the ED50 in series [1] (setting [4]) came out at 0.84 mg/kg. The ED50 in series [1] (setting [5]) is 12.2 mg/kg. For the same molecule, the “log10 REDUCTION in colony forming units versus untreated control group (thigh)” value with S. aureus ATCC 13709 is given as 3.68 log10. In series [2] (IV 1 mg/kg), the clearance came to 3.88 mL/min/kg and the maximum concentration (Cmax) was 667 ng/mL. Also, the bioavailability in series [2] was determined as 13.7%. The exposure (AUC) in series [2] (setting [6]) was 4430 ng·h/mL. In addition, in series [2] (setting [7]), the AUC came out at 6160 ng·h/mL.

As to `CN(C)[C@@H]1C(O)=C(C(N)=O)C(=O)[C@@]2(O)C(O)=C3C(=O)c4c(O)cc(CN(C)C(C)(C)C)c(F)c4C[C@H]3C[C@@H]12` [Compound S2-4-25], in series [1], the responders at 3 mg/kg stood at 100% and the responders at 30 mg/kg was found to be 100%. In addition, in series [1] (setting [4]), the ED50 was found to be 0.35 mg/kg. Moreover, the ED50 in series [1] (setting [5]) turned out to be 1.4 mg/kg. In addition, the “log10 REDUCTION in colony forming units versus untreated control group (thigh)” value in the series on S. aureus ATCC 13709 was determined as 4.1 log10. Further, the “12 h urine, IV Rat PK” value in series [2] (IV 1 mg/kg, urine, 12 h) worked out at 12 h urine 11 ug/mL. For the same molecule, in series [2] (IV 1 mg/kg), the clearance was found to be 19.4 mL/min/kg and the maximum concentration (Cmax) was determined as 214 ng/mL. For the same molecule, the bioavailability in series [2] was found to be 9.1%. Besides, the AUC in series [2] (setting [6]) came out at 838 ng·h/mL. The AUC in series [2] (setting [7]) turned out to be 826 ng·h/mL. Moreover, the log reduction at 2 mg/kg in series [3] (PO 2 mg/kg at 12 and 24 hours post infection) came to 2.78. Moreover, the log reduction at 3 mg/kg in series [3] (PO @ 3 mpk) came out at 3.63.

Source of the values: US9315451B2, “Tetracycline compounds” (priority 2009, dated 2016).
